# Literature values in patent US11484510B2, “Method to treat vitiligo” (APIRX PHAR[…], LLC, priority 2017, dated 2022).
# Columns and labels:
# CB1 receptor = CB1 receptor (Homo sapiens, UniProt P21554)
# Chain of CB1 receptor (P21554 whole entry): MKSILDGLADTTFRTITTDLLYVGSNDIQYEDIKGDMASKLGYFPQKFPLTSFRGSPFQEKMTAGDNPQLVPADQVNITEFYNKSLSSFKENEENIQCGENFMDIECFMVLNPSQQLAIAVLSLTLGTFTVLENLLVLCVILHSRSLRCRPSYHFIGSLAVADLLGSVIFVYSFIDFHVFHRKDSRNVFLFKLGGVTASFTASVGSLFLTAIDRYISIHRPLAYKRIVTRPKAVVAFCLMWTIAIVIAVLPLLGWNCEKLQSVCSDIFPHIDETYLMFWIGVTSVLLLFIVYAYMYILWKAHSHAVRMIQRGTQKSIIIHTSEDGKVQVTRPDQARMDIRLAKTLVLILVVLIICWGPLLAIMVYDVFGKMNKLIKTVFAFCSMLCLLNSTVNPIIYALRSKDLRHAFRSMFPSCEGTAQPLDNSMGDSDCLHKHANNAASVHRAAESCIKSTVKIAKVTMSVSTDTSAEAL
smiles,measurement,setting,value
"CCCCCc1cc(O)c(C/C=C(\C)CCC=C(C)C)c(O)c1 [CBG, 2-[(2E)-3,7-dimethylocta-2,6-dienyl]-5-pentyl-benzene-1,3-diol]","Affinity, α2-adrenergic receptor agonist",α2-adrenergic receptor,high affinity
same,"Affinity, 5-HT1A receptor antagonist",5-HT1A receptor,moderate affinity
same,"Affinity, CB1 receptor antagonist",CB1 receptor,low affinity
